Laboratory results as given in PubChem BioAssay AID248 (DTP/NCI, 2004).
Inconclusive results and toxic doses are left out. Rule as the data show it: active = T/C of 150% or more; inactive = T/C below 125%.

Test system: L1210 leukemia ip in BDF1 mice, survival T/C
Test: NCI In Vivo Anticancer Drug Screen. Data for tumor model L1210 Leukemia (intraperitoneal) in B6D2F1 (BDF1) mice
Details: endpoint: mean survival time, higher = longer survival
Summary of the method: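 Mice bearing the transplanted tumor received compound or vehicle. Survival of the treated group was divided by that of the vehicle-treated control group to give the ratio.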

[1] = dose: 100.0 mg/kg/injection, schedule: Q04DX003 (ip), vehicle: saline
[2] = dose: 200.0 mg/kg/injection, schedule: Q04DX003 (ip), vehicle: saline
[3] = dose: 400.0 mg/kg/injection, schedule: Q04DX003 (ip), vehicle: saline
[4] = dose: 50.0 mg/kg/injection, schedule: Q01DX009 (ip), vehicle: saline
[5] = dose: 100.0 mg/kg/injection, schedule: Q01DX001 (ip), vehicle: carboxymethylcellulose (CMC)
[6] = dose: 100.0 mg/kg/injection, schedule: Q01DX009 (ip), vehicle: saline
[7] = dose: 100.0 mg/kg/injection, schedule: Q04DX003 (ip), vehicle: Klucel (hydroxypropylcellulose) (HPC)
[8] = dose: 200.0 mg/kg/injection, schedule: Q01DX001 (ip), vehicle: carboxymethylcellulose (CMC)
[9] = dose: 400.0 mg/kg/injection, schedule: Q01DX001 (ip), vehicle: carboxymethylcellulose (CMC)
[10] = dose: 100.0 mg/kg/injection, schedule: Q04DX002 (ip), vehicle: Klucel (hydroxypropylcellulose) (HPC)
[11] = dose: 200.0 mg/kg/injection, schedule: Q04DX002 (ip), vehicle: Klucel (hydroxypropylcellulose) (HPC)
[12] = dose: 400.0 mg/kg/injection, schedule: Q04DX002 (ip), vehicle: Klucel (hydroxypropylcellulose) (HPC)
[13] = dose: 100.0 mg/kg/injection, schedule: Q01DX009 (ip), vehicle: Klucel (hydroxypropylcellulose) (HPC)
[14] = dose: 100.0 mg/kg/injection, schedule: Q01DX009 (ip), vehicle: saline with Tween-80
[15] = dose: 100.0 mg/kg/injection, schedule: Q04DX003 (ip), vehicle: saline with Tween-80
[16] = dose: 200.0 mg/kg/injection, schedule: Q01DX009 (ip), vehicle: saline with Tween-80
[17] = dose: 200.0 mg/kg/injection, schedule: Q04DX003 (ip), vehicle: saline with Tween-80
[18] = dose: 400.0 mg/kg/injection, schedule: Q01DX009 (ip), vehicle: saline with Tween-80
[19] = dose: 400.0 mg/kg/injection, schedule: Q04DX003 (ip), vehicle: saline with Tween-80
[20] = dose: 200.0 mg/kg/injection, schedule: Q01DX009 (ip), vehicle: Klucel (hydroxypropylcellulose) (HPC)
[21] = dose: 100.0 mg/kg/injection, schedule: Q04DX002 (ip), vehicle: saline with Tween-80
[22] = dose: 200.0 mg/kg/injection, schedule: Q04DX002 (ip), vehicle: saline with Tween-80
[23] = dose: 400.0 mg/kg/injection, schedule: Q04DX002 (ip), vehicle: saline with Tween-80

Measured: T/C

O=C1C=C(Nc2cccc(O)c2)c2ccccc2C1=O
inactive: [1] 94 % of control | [2] 97 % of control | [3] 89 % of control

COc1ccc2c(c1)sc(=N)n2C
inactive: dose: 100.0 mg/kg/injection, schedule: Q04DX002 (ip), vehicle: saline 97 % of control | dose: 200.0 mg/kg/injection, schedule: Q04DX002 (ip), vehicle: saline 93 % of control

CCOC(=O)N(CCCCCCNC(c1ccccc1)S(=O)(=O)O)c1ccccc1 (stereo not drawn)
inactive: dose: 6.0 mg/kg/injection, schedule: Q01DX009 (ip), vehicle: saline 109 % of control | dose: 12.0 mg/kg/injection, schedule: Q01DX009 (ip), vehicle: saline 103 % of control | dose: 25.0 mg/kg/injection, schedule: Q01DX009 (ip), vehicle: saline 106 % of control | [4] 97 % of control | [5] 98 % of control | [6] 86 % of control

CN1CC(COC(=O)Cc2c[nH]c3ccccc23)C=C2c3cccc4[nH]cc(c34)CC21 (stereo not drawn)
inactive: dose: 25.0 mg/kg/injection, schedule: Q04DX003 (ip), vehicle: alcohol 98 % of control | dose: 50.0 mg/kg/injection, schedule: Q04DX003 (ip), vehicle: alcohol 96 % of control | dose: 100.0 mg/kg/injection, schedule: Q04DX003 (ip), vehicle: alcohol 102 % of control | dose: 200.0 mg/kg/injection, schedule: Q04DX003 (ip), vehicle: alcohol 96 % of control | dose: 400.0 mg/kg/injection, schedule: Q04DX003 (ip), vehicle: alcohol 96 % of control

Cc1cccc(NC(=O)/C=N/O)c1C
inactive: [7] 98 % of control | dose: 200.0 mg/kg/injection, schedule: Q04DX003 (ip), vehicle: Klucel (hydroxypropylcellulose) (HPC) 98 % of control

CCCCN1C(=O)NC(=O)C1c1ccsc1 (stereo not drawn)
inactive: [5] 103 % of control | [8] 94 % of control | [9] 100 % of control

CN(C)Cc1ccccc1COC(=O)c1ccc([N+](=O)[O-])cc1Cl
inactive: [10] 102 % of control | [11] 109 % of control | [12] 94 % of control

Cc1cccc(Cl)c1OC(=O)Nc1ccccc1
inactive: dose: 50.0 mg/kg/injection, schedule: Q04DX002 (ip), vehicle: Klucel (hydroxypropylcellulose) (HPC) 98 % of control | [10] 98 % of control | [11] 102 % of control

O=C(NC1CCCCC1)C(=O)NC1CCCCC1
inactive: dose: 50.0 mg/kg/injection, schedule: Q01DX001 (ip), vehicle: saline 102 % of control | dose: 100.0 mg/kg/injection, schedule: Q01DX001 (ip), vehicle: saline 98 % of control | [10] 89 % of control | dose: 200.0 mg/kg/injection, schedule: Q01DX001 (ip), vehicle: saline 98 % of control | [11] 95 % of control | dose: 400.0 mg/kg/injection, schedule: Q01DX001 (ip), vehicle: saline 96 % of control | [12] 103 % of control

COc1ccc(-c2cccc(-c3ccccc3)n2)cc1
inactive: dose: 12.5 mg/kg/injection, schedule: Q04DX003 (ip), vehicle: Klucel (hydroxypropylcellulose) (HPC) 91 % of control | dose: 25.0 mg/kg/injection, schedule: Q01DX009 (ip), vehicle: Klucel (hydroxypropylcellulose) (HPC) 106 % of control | dose: 25.0 mg/kg/injection, schedule: Q04DX003 (ip), vehicle: Klucel (hydroxypropylcellulose) (HPC) 98 % of control | dose: 50.0 mg/kg/injection, schedule: Q01DX009 (ip), vehicle: Klucel (hydroxypropylcellulose) (HPC) 100 % of control | dose: 50.0 mg/kg/injection, schedule: Q04DX003 (ip), vehicle: Klucel (hydroxypropylcellulose) (HPC) 98 % of control | [13] 89 % of control | [7] 96 % of control

O=C1c2ccccc2C(=O)N1c1ccc([N+](=O)[O-])cc1
inactive: dose: 100.0 mg/kg/injection, schedule: Q01DX001 (ip), vehicle: Klucel (hydroxypropylcellulose) (HPC) 103 % of control | dose: 200.0 mg/kg/injection, schedule: Q01DX001 (ip), vehicle: Klucel (hydroxypropylcellulose) (HPC) 97 % of control | dose: 400.0 mg/kg/injection, schedule: Q01DX001 (ip), vehicle: Klucel (hydroxypropylcellulose) (HPC) 103 % of control

Oc1ccc(Cl)cc1Br
inactive: dose: 25.0 mg/kg/injection, schedule: Q01DX009 (ip), vehicle: saline with Tween-80 100 % of control | dose: 50.0 mg/kg/injection, schedule: Q01DX009 (ip), vehicle: saline with Tween-80 88 % of control | [14] 100 % of control

O=C(NC(Cc1cnc[nH]1)C(=O)O)OCc1ccccc1 (stereo not drawn)
inactive: [14] 100 % of control | [15] 100 % of control | [16] 100 % of control | [17] 98 % of control | [18] 96 % of control | [19] 101 % of control

N=c1cc(-c2ccc(Cl)cc2)ss1
inactive: [4] 91 % of control | [6] 97 % of control | [1] 100 % of control | dose: 200.0 mg/kg/injection, schedule: Q01DX009 (ip), vehicle: saline 91 % of control | [2] 92 % of control

O=S(=O)(F)c1cc(Cl)c(O)cc1Cl
inactive: [13] 97 % of control | [20] 101 % of control

CC(=O)Nc1ccc(NC(=O)Nc2cc(Cl)ccc2C)cc1
inactive: [13] 91 % of control | [20] 93 % of control | dose: 400.0 mg/kg/injection, schedule: Q01DX009 (ip), vehicle: Klucel (hydroxypropylcellulose) (HPC) 96 % of control

Cn1c2ccccc2c(=O)c2cc(N)ccc21
inactive: [1] 95 % of control | [2] 98 % of control | [3] 104 % of control

CC1CCC2(OC1)OC1CC3C4CCC5CC(O)C(O)CC5(C)C4CCC3(C)C1C2C (stereo not drawn)
inactive: dose: 50.0 mg/kg/injection, schedule: Q01DX009 (ip), vehicle: acetone 92 % of control | dose: 100.0 mg/kg/injection, schedule: Q01DX009 (ip), vehicle: acetone 92 % of control | [1] 92 % of control | dose: 200.0 mg/kg/injection, schedule: Q01DX009 (ip), vehicle: acetone 100 % of control | [2] 97 % of control | dose: 400.0 mg/kg/injection, schedule: Q01DX009 (ip), vehicle: acetone 94 % of control | [3] 94 % of control

CCC[CH2][Pb]([CH2]CCC)([CH2]CCC)[CH2]CCC
inactive: [21] 107 % of control | [22] 105 % of control | [23] 102 % of control

O=S(=O)(OCC1CO1)c1ccc(Br)cc1 (stereo not drawn)
inactive: dose: 100.0 mg/kg/injection, schedule: Q01DX008 (ip), vehicle: Klucel (hydroxypropylcellulose) (HPC) 103 % of control | dose: 200.0 mg/kg/injection, schedule: Q01DX008 (ip), vehicle: Klucel (hydroxypropylcellulose) (HPC) 92 % of control | dose: 400.0 mg/kg/injection, schedule: Q01DX008 (ip), vehicle: Klucel (hydroxypropylcellulose) (HPC) 108 % of control

CCCCCCCCC(O)(CCCCCCC)C(=O)O (stereo not drawn)
inactive: [10] 95 % of control | [11] 117 % of control | [12] 115 % of control

Cc1cc2c(cc1C)C(=O)CCC2
inactive: dose: 100.0 mg/kg/injection, schedule: Q01DX001 (ip), vehicle: saline with Tween-80 97 % of control | [14] 109 % of control | [21] 88 % of control | [15] 97 % of control | dose: 200.0 mg/kg/injection, schedule: Q01DX001 (ip), vehicle: saline with Tween-80 97 % of control | [16] 109 % of control | [22] 90 % of control | [17] 98 % of control | dose: 400.0 mg/kg/injection, schedule: Q01DX001 (ip), vehicle: saline with Tween-80 91 % of control | [18] 115 % of control | [23] 90 % of control | [19] 95 % of control

Cc1cn(C2CC(O)C(CO)O2)c(=O)n(CCCc2ccccc2)c1=O (stereo not drawn)
inactive: dose: 50.0 mg/kg/injection, schedule: Q01DX001 (ip), vehicle: carboxymethylcellulose (CMC) 93 % of control | [5] 90 % of control | [8] 87 % of control | [9] 90 % of control
